Tested on: 885724-159-R-J1-PDC complex spheroid viability
Assay: Anticancer human tumor 885724-159-R-J1-PDC patient-derived pancreatic adenocarcinoma cell line growth inhibition [POLQ]
Settings: for IC50: curve of first compound; for viability, T/C: stronger effect = lower value
In short: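 Growth inhibition in 3D: complex spheroids (tumor PDC, HUVEC, MSC) treated with POLQ inhibitor combinations; where Cmax unknown, highest tested concentration 10 microM, except SN-38 at 1 microM.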

[1] = second compound 0.0316 µM, first compound 0.0316 µM
[2] = second compound 0.0316 µM, first compound 0.1 µM
[3] = second compound 0.0316 µM, first compound 0.316 µM
[4] = second compound 0.0316 µM, first compound 1 µM
[5] = second compound 0.0316 µM, first compound 3.16 µM
[6] = second compound 0.0316 µM, first compound 10 µM
[7] = second compound 0.1 µM, first compound 0.0316 µM
[8] = second compound 0.1 µM, first compound 0.1 µM
[9] = second compound 0.1 µM, first compound 0.316 µM
[10] = second compound 0.1 µM, first compound 1 µM
[11] = second compound 0.1 µM, first compound 3.16 µM
[12] = second compound 0.1 µM, first compound 10 µM
[13] = second compound 0.316 µM, first compound 0.0316 µM
[14] = second compound 0.316 µM, first compound 0.1 µM
[15] = second compound 0.316 µM, first compound 0.316 µM
[16] = second compound 0.316 µM, first compound 1 µM
[17] = second compound 0.316 µM, first compound 3.16 µM
[18] = second compound 0.316 µM, first compound 10 µM
[19] = second compound 1 µM, first compound 0.0316 µM
[20] = second compound 1 µM, first compound 0.1 µM
[21] = second compound 1 µM, first compound 0.316 µM
[22] = second compound 1 µM, first compound 1 µM
[23] = second compound 1 µM, first compound 3.16 µM
[24] = second compound 1 µM, first compound 10 µM
[25] = second compound 3.16 µM, first compound 0.0316 µM
[26] = second compound 3.16 µM, first compound 0.1 µM
[27] = second compound 3.16 µM, first compound 0.316 µM
[28] = second compound 3.16 µM, first compound 1 µM
[29] = second compound 3.16 µM, first compound 3.16 µM
[30] = second compound 3.16 µM, first compound 10 µM
[31] = second compound 10 µM, first compound 0.0316 µM
[32] = second compound 10 µM, first compound 0.1 µM
[33] = second compound 10 µM, first compound 0.316 µM
[34] = second compound 10 µM, first compound 1 µM
[35] = second compound 10 µM, first compound 3.16 µM
[36] = second compound 10 µM, first compound 10 µM
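Also: spheroids exposed to compounds for 7 days.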

C#Cc1c(F)ccc2cc(O)cc(-c3ncc4c(N5CC6CCC(C5)N6)nc(OCC56CCCN5CC(F)C6)nc4c3F)c12 (stereo unspecified) + COC1C(OC(N)=O)C(O)C(Oc2ccc3c(O)c(NC(=O)c4ccc(O)c(CC=C(C)C)c4)c(=O)oc3c2C)OC1(C)C
IC50 (second compound 0.0316 µM): 2.75 µM
IC50 (second compound 0.1 µM): 2.49 µM
IC50 (second compound 0.316 µM): 2.38 µM
IC50 (second compound 1 µM): 2.67 µM
IC50 (second compound 3.16 µM): 2.58 µM
IC50 (second compound 10 µM): 2.97 µM
viability, T/C [1]: 104%
viability, T/C [2]: 101%
viability, T/C [3]: 88.5%
viability, T/C [4]: 76.8%
viability, T/C [5]: 45.2%
viability, T/C [6]: 21.7%
viability, T/C [7]: 104%
viability, T/C [8]: 94.3%
viability, T/C [9]: 93%
viability, T/C [10]: 72.1%
viability, T/C [11]: 44%
viability, T/C [12]: 21.7%
viability, T/C [13]: 95.7%
viability, T/C [14]: 107%
viability, T/C [15]: 88.7%
viability, T/C [16]: 76.6%
viability, T/C [17]: 40.9%
viability, T/C [18]: 22.6%
viability, T/C [19]: 97.9%
viability, T/C [20]: 100%
viability, T/C [21]: 90%
viability, T/C [22]: 76.5%
viability, T/C [23]: 45.2%
viability, T/C [24]: 20.8%
viability, T/C [25]: 94.9%
viability, T/C [26]: 97.2%
viability, T/C [27]: 90.3%
viability, T/C [28]: 67.2%
viability, T/C [29]: 47.8%
viability, T/C [30]: 22.3%
viability, T/C [31]: 99.4%
viability, T/C [32]: 92.6%
viability, T/C [33]: 95.2%
viability, T/C [34]: 73.9%
viability, T/C [35]: 49.4%
viability, T/C [36]: 21.9%

C=CC(=O)N1CCN(c2nc(=O)n(-c3c(C)ccnc3C(C)C)c3nc(-c4c(O)cccc4F)c(F)cc23)C(C)C1 (stereo unspecified) + COC1C(OC(N)=O)C(O)C(Oc2ccc3c(O)c(NC(=O)c4ccc(O)c(CC=C(C)C)c4)c(=O)oc3c2C)OC1(C)C
IC50 (second compound 0.0316 µM): > 10 µM
IC50 (second compound 0.1 µM): > 10 µM
IC50 (second compound 0.316 µM): > 10 µM
IC50 (second compound 1 µM): > 10 µM
IC50 (second compound 3.16 µM): > 10 µM
IC50 (second compound 10 µM): > 10 µM
viability, T/C [1]: 104%
viability, T/C [2]: 97.9%
viability, T/C [3]: 110%
viability, T/C [4]: 113%
viability, T/C [5]: 114%
viability, T/C [6]: 91.7%
viability, T/C [7]: 109%
viability, T/C [8]: 91.9%
viability, T/C [9]: 106%
viability, T/C [10]: 108%
viability, T/C [11]: 115%
viability, T/C [12]: 105%
viability, T/C [13]: 107%
viability, T/C [14]: 115%
viability, T/C [15]: 104%
viability, T/C [16]: 112%
viability, T/C [17]: 123%
viability, T/C [18]: 95.1%
viability, T/C [19]: 118%
viability, T/C [20]: 104%
viability, T/C [21]: 112%
viability, T/C [22]: 106%
viability, T/C [23]: 114%
viability, T/C [24]: 83.2%
viability, T/C [25]: 102%
viability, T/C [26]: 108%
viability, T/C [27]: 104%
viability, T/C [28]: 116%
viability, T/C [29]: 124%
viability, T/C [30]: 104%
viability, T/C [31]: 96%
viability, T/C [32]: 93.7%
viability, T/C [33]: 106%
viability, T/C [34]: 110%
viability, T/C [35]: 111%
viability, T/C [36]: 91%

CC(C)n1c(=O)n(C)c2cnc3cc(F)c(-c4ccc(OCCCN5CCCCC5)nc4)cc3c21 + COC1C(OC(N)=O)C(O)C(Oc2ccc3c(O)c(NC(=O)c4ccc(O)c(CC=C(C)C)c4)c(=O)oc3c2C)OC1(C)C
IC50 (second compound 0.0316 µM): > 10 µM
IC50 (second compound 0.1 µM): > 10 µM
IC50 (second compound 0.316 µM): > 10 µM
IC50 (second compound 1 µM): > 10 µM
IC50 (second compound 3.16 µM): > 10 µM
IC50 (second compound 10 µM): > 10 µM
viability, T/C [1]: 89.6%
viability, T/C [2]: 89.6%
viability, T/C [3]: 97.5%
viability, T/C [4]: 88.9%
viability, T/C [5]: 88.3%
viability, T/C [6]: 84.4%
viability, T/C [7]: 96.5%
viability, T/C [8]: 99.4%
viability, T/C [9]: 100%
viability, T/C [10]: 100%
viability, T/C [11]: 91.1%
viability, T/C [12]: 105%
viability, T/C [13]: 99.4%
viability, T/C [14]: 86.6%
viability, T/C [15]: 93.5%
viability, T/C [16]: 93.7%
viability, T/C [17]: 91.8%
viability, T/C [18]: 86.1%
viability, T/C [19]: 104%
viability, T/C [20]: 96.5%
viability, T/C [21]: 104%
viability, T/C [22]: 90%
viability, T/C [23]: 97%
viability, T/C [24]: 77.8%
viability, T/C [25]: 99.5%
viability, T/C [26]: 92.5%
viability, T/C [27]: 94.3%
viability, T/C [28]: 98%
viability, T/C [29]: 98.7%
viability, T/C [30]: 93.2%
viability, T/C [31]: 100%
viability, T/C [32]: 94.9%
viability, T/C [33]: 114%
viability, T/C [34]: 91.9%
viability, T/C [35]: 88.8%
viability, T/C [36]: 93.2%
